Each structure is given as a SMILES string. Like-named read-outs stand apart in the source and are kept apart here.

Data on four compounds can be found in patent US20200165194A1, “ADDITIVE COMPOSITION FOR CULTURE MEDIUM, ADDITIVE COMPOUND FOR CULTURE MEDIUM, AND METHOD FOR CULTURE OF CELLS OR TISSUE USING SAME” (NISSAN CHEMICAL CORPORATION, priority 2017, published 2020).

What all share (type): cell-based
In series [1] the test system is human malignant melanoma-derived cell line A375. In words: Various human cancer cells-2, 3D culture, ATP assay (Experimental Example 6). The following applies: 4 days; for viability at 5 µM / viability at 10 µM: Homo sapiens, A-375, 96 h, read-out: number of viable cells (RLU), relative value to control (100%).
Series [2] has as its system human prostate cancer-derived cell DU145. Described as above. The following applies: 4 days.
The subject of series [3] is human stomach adenocarcinoma-derived cell line AGS. The series is described as above. The following applies: 4 days; for viability at 5 µM / viability at 10 µM: Homo sapiens, 96 h, read-out: number of viable cells (RLU), relative value to control (100%).
In series [4] the test system is SKOV3 cells (human ovarian cancer-derived cell line). In words: Cell proliferation activity in three-dimensional medium FCeM, ATP assay (Experimental Example 1). The following applies: SKOV3, 3D medium FCeM, 4 days, DMSO control = 100%, average of two tests. As for the experimental part: A cell proliferation promoting effect when the compound to be used in the present invention was added to a three-dimensional medium was studied. Specifically, precultured (adhesion cultured) SKOV3 cells (human ovarian cancer-derived cell line) were recovered and suspended in a three-dimensional cell culture medium (“FCeM (registered trade mark)” (Nissan chemical corporation)) to prepare a cell suspension. […] The cell suspension seeded in the plate was stood overnight at 37° C., 5% CO2. Then, a DMSO diluted solution (4.44 μL) of the compound to be used in the present invention was added at a final concentration of 5 μM (or two steps of […] and 10 μM) (no stirring after addition). After addition of each compound, the mixtures were stood for 4 days at 37° C., 5% CO2. […] The luminescence intensity (RLU value) was measured by FlexStation3 (manufactured by Molecular Devices), and cell proliferation was evaluated.
The proliferation rate was calculated based on the control (cells added with DMSO without containing the compound to be used in the present invention) as the standard (100%). The values shown in the tables are average values of the results of two tests.

Series [5] concerns human ovarian cancer cell line SKOV3. Briefly: Action on SKOV3 cell-1: 3D (deacylated gellan gum) and 2D culture, HB-EGF medium, ATP assay (Experimental Example 2). The following applies: for relative value of RLU (number of viable cells) / viability at 0.5 µM / viability at 1 µM / viability at 5 µM / viability at 10 µM / viability at 20 µM: 4 days, compound non-addition = 100%; for viability at 0.5 µM / viability at 1 µM / viability at 5 µM / viability at 10 µM / viability at 20 µM: Homo sapiens, SK-OV-3, 96 h, read-out: relative value of RLU (number of viable cells).
Procedure: According to the method of patent document 1 (WO 2014/017513), a composition of McCoy's 5a medium (manufactured by Sigma-Aldrich) containing 0.015% (w/v) deacylated gellan gum (KELCOGEL CG-LA, manufactured by Sansho Co., Ltd.) and 15% (v/v) FBS, 100 ng/mL human HB-EGF (manufactured by PEPROTECH) was prepared by a homomixer. As a control, a non-addition medium composition not containing deacylated gellan gum was prepared. Then, human ovarian cancer cell line SKOV3 (manufactured by DS PHARMA BIO MEDICAL) was suspended in the above-mentioned medium composition added with deacylated gellan gum, and dispensed into the wells of a 384 well flat bottom Ultr-low Attachment surface microplate (manufactured by Corning Incorporated, #3827) at 1000 cells/40 μL/well (three-dimensional culture (3D)). In a single layer culture (2D), human ovarian cancer cell line SKOV3 was suspended in the above-mentioned medium is composition not containing deacylated gellan gum, and dispensed into the wells of a 384 well flat bottom microplate (manufactured by Corning Incorporated, #3712) at 400 cells/40 L per well. Each plate was cultured in a standing state in a CO2 incubator (37° C., 5% CO2). On day 1 of culture, the compound to be used in the present invention dissolved in dimethyl sulfoxide (DMSO) was added by 4.4 μL each at a final concentration of 0, 0.5, 1, 5, 10, 20 μM, and continuously cultured for 4 days. An ATP reagent (44.4 μL) (CellTiter-Glo (registered trade mark) Luminescent Cell Viability Assay, manufactured by Promega) was added to and suspended in the culture medium on day 5, and the suspension was stood for 15 min at room temperature. The luminescence intensity (RLU value) was measured by FlexStation3 (manufactured by Molecular Devices) and the luminescence value of the medium alone was subtracted to measure the number of viable cells.

The subject of series [6] is Canine kidney renal tubule epithelial cells (MDCK cells). In words: MDCK cells-1: Cyst formation on Matrigel, Cyst area by fluorescence microscope (Experimental Example 7). The following applies: 10 μM, 7 days. As for the experimental part:
Canine kidney renal tubule epithelial cells (MDCK cells, manufactured by DS PHARMA BIO MEDICAL) were precultured in EMEM medium containing 10% FBS and 1% NEAA. Cold Matrigel (registered trade mark) Matrix GFR (manufactured by Corning) was spread on a 24-well plate by 50 μL and fixed by incubating at 37° C. for 15 min. The aforementioned MDCK cells were suspended in a medium at a concentration of 20000 cells/mL, cold Matrigel (registered trade mark) Matrix GFR was added at […] and seeded at 1 mL/well. […] As a control (compound no-addition), DMSO was added at a final concentration of 0.1%. Seven days later, the cells were washed with PBS (1 mL/well), 4% paraformaldehyde/PBS (manufactured by Wako Pure Chemical Industries, Ltd.) was added (1 mL/well) and fixed at room temperature for 20 min. Thereafter, the supernatant was removed, IF buffer (0.2% Triton X-100 (manufactured by Sigma-Aldrich), 0.05% Tween 20 (manufactured by Sigma-Aldrich)-containing PBS) were added at 1 mL/well, stood for 30 min and removed. […] After washing 3 times every 5 min with IF buffer, VECTASHIELD Mounting Medium with DAPI (manufactured by Vector Laboratories) was added dropwise, and the cells were observed and analyzed with a fluorescence microscope (ArrayScan, manufactured by Thermo Fisher Scientific).

The mark [7] stands for this setting: low attachment flat bottom plate (gellan gum medium), 5 μM.
The mark [8] stands for this setting: low attachment flat bottom plate (gellan gum medium), 10 μM.
Where [9] appears, read: low attachment U-bottom plate, 5 μM.
The mark [10] stands for this setting: low attachment U-bottom plate, 10 μM.
[11] abbreviates: 2D single layer culture, 0.5 μM.
Where [12] appears, read: 3D culture (deacylated gellan gum), 0.5 μM.
Setting [13] is: 3D culture (deacylated gellan gum), 1 μM.
[14] abbreviates: 3D culture (deacylated gellan gum), 5 μM.
The mark [15] stands for this setting: 3D culture (deacylated gellan gum), 10 μM.
Setting [16] is: 3D culture (deacylated gellan gum), 20 μM.
[17] abbreviates: single layer culture (2D) of SKOV3 cells.
Setting [18] is: three-dimensional culture (3D) of SKOV3 cells.

`CC/C(=N\NC(=O)C(C)Nc1ccccc1)c1ccc(O)c(C)c1O` (centres unmarked) [k-1:B-1]: the viability at 5 µM in series [1] (setting [7]) and in series [3] (setting [7]) was greater than 120% each time. For the same compound, in series [1] (setting [8]), the viability at 10 µM is greater than 120%. Also, the “number of viable cells (RLU), relative value to control (100%)” value (shortened to “number … relative value to control (100%)”) in series [1] (setting [9]), in series [1] (setting [10]), in series [2] (setting [9]), in series [2] (setting [10]), in series [2] (setting [7]) and in series [2] (setting [8]) was “⊙” each time. Moreover, the “number … relative value to control (100%)” value in series [3] (setting [9]), in series [3] (setting [10]) and in series [3] (setting [8]) was “⊙” each time.
In the case of `CCC(=NNC(=O)C(CC)Nc1ccccc1)c1ccc(O)c(C)c1O` (centres unmarked) [k-1:H-7], in series [4] (compound 5 μM), the “proliferation rate (%)” value was found to be 236.46%. Moreover, the “relative value of RLU (number of viable cells)” value in series [5] (setting [11]) is given as 110%; in series [5] (2D single layer culture, 1 μM), 105%; in series [5] (2D single layer culture, 5 μM), 91%; in series [5] (2D single layer culture, 10 μM), 69%; in series [5] (2D single layer culture, 20 μM) it was 47%; in series [5] (setting [12]) it was 104%. The “relative value of RLU (number of viable cells)” value in series [5] (setting [13]) was determined as 137%; in series [5] (setting [14]), 176%; in series [5] (setting [15]) it was 150%; in series [5] (setting [16]), 110%. Also, the “cell proliferation promoting effect (in words)” value was “a favorable cell proliferation promoting effect was not observed” in series [5] (setting [17]) and “exhibited cell proliferation promoting effect at a wide concentration range” in series [5] (setting [18]). For the same compound, the “increase of the area per one Cyst” value in series [6] (Control as 100) is no less than 20%. The “Cyst area (relative value)” value in series [6] (control = 100) is recorded as 124.
In the case of `CC/C(=N\NC(=O)Nc1ccccc1)c1ccc(O)c(C)c1O` [k-1:H-10], the “proliferation rate (%) (5 μM)” value in series [4] (5 μM) is recorded as 127.9%. Moreover, the “proliferation rate (%) (10 μM)” value in series [4] (10 μM) is reported as 138.4%. Besides, the viability at 0.5 µM in series [5] (setting [11]) turned out to be 111%; in series [5] (setting [12]), 120%. Besides, the viability at 1 µM in series [5] (2D single layer culture, 1 μM) turned out to be 108%; in series [5] (setting [13]), 120%. Besides, the viability at 5 µM in series [5] (2D single layer culture, 5 μM) turned out to be 102%; in series [5] (setting [14]) it was 128%. For the same compound, the viability at 10 µM in series [5] (2D single layer culture, 10 μM) was determined as 99%; in series [5] (setting [15]), 138%. Besides, the viability at 20 µM came to 66% in series [5] (2D single layer culture, 20 μM) and 129% in series [5] (setting [16]). Moreover, the results for the “cell proliferation promoting effect (in words)” value in series [5] (setting [17]) and in series [5] (setting [18]) were “a favorable cell proliferation promoting effect was not observed” and “exhibited cell proliferation promoting effect at a wide concentration range”, respectively.
Regarding `CC/C(=N\NC(=O)NCc1ccccc1)c1ccc(O)c(C)c1O` [k-1:I-1], the viability at 5 µM in series [1] (setting [9]) is 120 to 150%; in series [1] (setting [7]), less than 119%; in series [2] (Homo sapiens, DU-145, 96 h, low attachment U-bottom plate, 5 μM, read-out: number of viable cells (RLU), relative value to control (100%)), less than 119%; in series [2] (Homo sapiens, DU-145, 96 h, low attachment flat bottom plate (gellan gum medium), 5 μM, read-out: number of viable cells (RLU), relative value to control (100%)) it was 120 to 150%; in series [3] (setting [9]), less than 119%; in series [3] (setting [7]) it was 120 to 150%. For the same compound, the viability at 10 µM in series [1] (setting [10]) was 120 to 150%; in series [1] (setting [8]), less than 119%; in series [2] (Homo sapiens, DU-145, 96 h, low attachment U-bottom plate, 10 μM, read-out: number of viable cells (RLU), relative value to control (100%)), 120 to 150%; in series [3] (setting [10]), 120 to 150%; in series [3] (setting [8]), 120 to 150%. Further, the “number … relative value to control (100%)” value in series [2] (setting [8]) is “⊙”.
